These results are taken from patent US6645918B1, “N-([1,2,4]triazoloazinyl)thiophenesulfonamide compounds and their use as herbicides” (Dow AgroSciences LLC, priority 2000, dated 2003).

Common to all, as to assay type: in vivo
Experiment [1] relates to chickweed (Stellaria media). In words: Postemergence herbicidal activity, chickweed. The following applies: 7.8 ppm, foliar spray, visual after 2 weeks; 0 no injury, 100 complete kill. How it is done:
(§1) Seeds of the desired test plant species were planted in Grace-Sierra MetroMix® 306 planting mixture, which typically has a pH of 6.0 to 6.8 and an organic matter content of about 30 percent, in plastic pots with a surface area of 64 square centimeters. When required to ensure good germination and healthy plants, a fungicide treatment and/or other chemical or physical treatment was applied. The plants were grown for 7-21 days in a greenhouse with an approximately 15 hr photoperiod which was maintained at about 23-29° C. during the day and 22-28° C. during the night. Nutrients and water were added on a regular basis and supplemental lighting was provided with overhead metal halide 1000 Watt lamps as necessary. The plants were employed for testing when they reached the first or second true leaf stage. A weighed amount of each test compound, determined by the highest rate to be tested, was placed in a 20 mL glass vial and was dissolved in 4 mL of a 97:3 v/v (volume/volume) mixture of acetone and dimethyl sulfoxide to obtain concentrated stock solutions. […] The concentrated stock solutions obtained were diluted with an aqueous mixture containing acetone, water, iso-propyl alcohol, dimethyl sulfoxide, Atplus 411F crop oil concentrate, and Triton X-155 surfactant (methylenebisdiamyl phenoxy polyethoxy ethanol) in a 48.5:39:10:1.5:1.0:0.02 v/v ratio to obtain spray solutions of known concentration. The solutions containing the highest concentration to be tested were prepared by diluting 2 mL aliquots of the stock solution with 13 mL of the mixture and lower concentrations were prepared by dilution of appropriate smaller portions of the stock solution. Approximately 1.5 mL aliquots of each solution of known concentration were sprayed evenly onto each of the test plant pots using a DeVilbiss atomizer driven by compressed air pressure of 2 to 4 psi (140 to 280 kilopascals) to obtain thorough coverage of each plant. Control plants were sprayed in the same manner with the aqueous mixture. In this test an application rate of 1 ppm results in the application of approximately 1 g/ha. The treated plants and control plants were placed in a greenhouse as described above and watered by sub-irrigation to prevent wash-off of the test compounds. After 2 weeks the condition of the test plants as compared with that of the untreated plants was determined visually and scored on a scale of 0 to 100 percent where 0 corresponds to no injury and 100 corresponds to complete kill.

Experiment [2] concerns cocklebur (Xanthium strumarium). As to the kind of experiment: Postemergence herbicidal activity, cocklebur. The following applies: 7.8 ppm, foliar spray, visual after 2 weeks; 0 no injury, 100 complete kill. How it is done: as §1
Experiment [3] deals with lambsquarters (Chenopodium album). As to the kind of experiment: Postemergence herbicidal activity, lambsquarters. Conditions: 7.8 ppm, foliar spray, visual after 2 weeks; 0 no injury, 100 complete kill. As to the method:
as §1

Experiment [4] deals with morningglory (Ipomoea hederacea). As to the kind of experiment: Postemergence herbicidal activity, morningglory. Conditions: 7.8 ppm, foliar spray, visual after 2 weeks; 0 no injury, 100 complete kill. How it is done: as §1
The subject of experiment [5] is pigweed (Amaranthus retroflexus). As to the kind of experiment: Postemergence herbicidal activity, pigweed. The following applies: 7.8 ppm, foliar spray, visual after 2 weeks; 0 no injury, 100 complete kill. How it is done: as §1
Experiment [6] has as its system velvetleaf (Abutilion theophrasti). As to the kind of experiment: Postemergence herbicidal activity, velvetleaf. Conditions: 7.8 ppm, foliar spray, visual after 2 weeks; 0 no injury, 100 complete kill. As to the method:
as §1

Another experiment concerns viola (Viola tricolor). As to the kind of experiment: Postemergence herbicidal activity, viola. The following applies: 7.8 ppm, foliar spray, visual after 2 weeks; 0 no injury, 100 complete kill. How it is done: as §1
In experiment [7] the test system is blackgrass (Alopecurus myosuroides). As to the kind of experiment: Postemergence herbicidal activity, blackgrass. Conditions: 7.8 ppm, foliar spray, visual after 2 weeks; 0 no injury, 100 complete kill. As to the method: as §1
The test system of experiment [8] is giant foxtail (Setaria faberi). As to the kind of experiment: Postemergence herbicidal activity, giant foxtail. Conditions: 7.8 ppm, foliar spray, visual after 2 weeks; 0 no injury, 100 complete kill. As to the method: as §1
Experiment [9] has as its system Rox orange sorghum (Sorghum bicolor). As to the kind of experiment: Postemergence herbicidal activity, Rox orange sorghum. The following applies: 7.8 ppm, foliar spray, visual after 2 weeks; 0 no injury, 100 complete kill. As to the method: as §1
Experiment [10] concerns wild oats (Avena fatua). As to the kind of experiment: Postemergence herbicidal activity, wild oats. Conditions: 7.8 ppm, foliar spray, visual after 2 weeks; 0 no injury, 100 complete kill. How it is done: as §1
The subject of experiment [11] is cocklebur (Xanthium strumarium). As to the kind of experiment: Preemergence herbicidal activity, cocklebur. Conditions: soil spray, visual after 3 weeks, 0 no injury, 100 complete kill or no germination. How it is done: (§2) The soil matrix was contained in plastic pots with a surface area of 161 square centimeters. When required to ensure good germination and healthy plants, a fungicide treatment and/or other chemical or physical treatment was applied. A weighed amount, determined by the highest rate to be tested, of each test compound was placed in a 20 mL glass vial and was dissolved in 8 mL of a 97:3 v/v (volume/volume) mixture of acetone and dimethyl sulfoxide to obtain concentrated stock solutions. […] The stock solutions obtained were diluted with a 99.9:0.1 mixture of water and Tween® 155 surfactant (ethoxylated sorbitan fatty acid ester) to obtain application solutions of known concentration. The solutions containing the highest concentration to be tested were prepared by diluting 4 mL aliquots of the stock solution with 8.5 mL of the mixture and lower concentrations were prepared by dilution of appropriate smaller portions of the stock solution. A 2.5 mL aliquot of each solution of known concentration was sprayed evenly onto the soil of each seeded pot using a Cornwall 5.0 mL glass syringe fitted with a TeeJet TN-3 hollow cone nozzle to obtain thorough coverage of the soil in each pot. Control pots were sprayed in the same manner with the aqueous mixture. A highest application rate of 4.48 kg/ha is achieved when 50 mg of test compound is employed. The treated pots and control pots were placed in a greenhouse with an approximately 15 hr photoperiod which was maintained at about 23-29° C. during the day and 22-28° C. during the night. Nutrients and water were added on a regular basis and supplemental lighting was provided with overhead metal halide 1000 Watt lamps as necessary. The water was added by top-irrigation. After 3 weeks the condition of the test plants that germinated and grew as compared with that of the untreated plants that germinated and grew was determined visually and scored on a scale of 0 to 100 percent where 0 corresponds to no injury and 100 corresponds to complete kill or no germination.

Experiment [12] deals with lambsquarters (Chenopodium album). In words: Preemergence herbicidal activity, lambsquarters. The following applies: soil spray, visual after 3 weeks, 0 no injury, 100 complete kill or no germination. As to the method: as §2
The subject of experiment [13] is morningglory (Ipomoea hederacea). As to the kind of experiment: Preemergence herbicidal activity, morningglory. The following applies: soil spray, visual after 3 weeks, 0 no injury, 100 complete kill or no germination. How it is done:
as §2

Experiment [14] relates to pigweed (Amaranthus retroflexus). In words: Preemergence herbicidal activity, pigweed. The following applies: soil spray, visual after 3 weeks, 0 no injury, 100 complete kill or no germination. As to the method: as §2
The subject of experiment [15] is velvetleaf (Abutilion theophrasti). In words: Preemergence herbicidal activity, velvetleaf. Conditions: soil spray, visual after 3 weeks, 0 no injury, 100 complete kill or no germination. How it is done: as §2
Experiment [16] relates to wild poinsettia (Euphorbia heterophylla). In words: Preemergence herbicidal activity, wild poinsettia. The following applies: soil spray, visual after 3 weeks, 0 no injury, 100 complete kill or no germination. As to the method:
as §2

Experiment [17] has as its system blackgrass (Alopecurus myosuroides). In words: Preemergence herbicidal activity, blackgrass. Conditions: soil spray, visual after 3 weeks, 0 no injury, 100 complete kill or no germination. As to the method: as §2
Experiment [18] has as its system barnyardgrass (Echinochloa crus-galli). As to the kind of experiment: Preemergence herbicidal activity, barnyardgrass. Conditions: soil spray, visual after 3 weeks, 0 no injury, 100 complete kill or no germination. As to the method:
as §2

Experiment [19] relates to crabgrass (Digitaria sanguinalis). As to the kind of experiment: Preemergence herbicidal activity, crabgrass. The following applies: soil spray, visual after 3 weeks, 0 no injury, 100 complete kill or no germination. How it is done: as §2
The subject of experiment [20] is giant foxtail (Setaria faberi). In words: Preemergence herbicidal activity, giant foxtail. The following applies: soil spray, visual after 3 weeks, 0 no injury, 100 complete kill or no germination. As to the method: as §2
The test system of experiment [21] is Rox orange sorghum (Sorghum bicolor). As to the kind of experiment: Preemergence herbicidal activity, Rox orange sorghum. The following applies: soil spray, visual after 3 weeks, 0 no injury, 100 complete kill or no germination. As to the method: as §2
Experiment [22] concerns wild oats (Avena fatua). In words: Preemergence herbicidal activity, wild oats. The following applies: soil spray, visual after 3 weeks, 0 no injury, 100 complete kill or no germination. How it is done:
as §2

On to `CCOc1cscc1S(=O)(=O)Nc1nc2c(OC)cnc(OC)n2n1` [Compound 13], for which the “STEME postemergence injury score 0-100” value in [1] is recorded as 95%. Further, the “XANST postemergence injury score 0-100” value in experiment [2] is recorded as 95%. Besides, the “CHEAL postemergence injury score 0-100” value in experiment [3] is listed as 90%. For the same molecule, the “IPOHE postemergence injury score 0-100” value in [4] was 75%. Also, the “AMARE postemergence injury score 0-100” value in experiment [5] stood at 100%. For the same molecule, the “ABUTH postemergence injury score 0-100” value in experiment [6] is reported as 95%. In addition, the “VIOTR postemergence injury score 0-100” value in the experiment on viola (Viola tricolor) came out at 75%. The “ALOMY postemergence injury score 0-100” value in [7] is given as 80%. Also, the “SETFA postemergence injury score 0-100” value in experiment [8] was 95%. Besides, the “SORBI postemergence injury score 0-100” value in [9] is 95%. Besides, in the experiment on wild oats (Avena fatua) [10], the “AVEFA postemergence injury score 0-100” value turned out to be 85%. Further, the “XANST preemergence injury score 0-100” value in [11] (4.4 g/Ha) came out at 80%. For the same molecule, the “CHEAL preemergence injury score 0-100” value in [12] (4.4 g/Ha) worked out at 100%. For the same molecule, the “IPOHE preemergence injury score 0-100” value in [13] (4.4 g/Ha) stood at 90%. In addition, in experiment [14] (4.4 g/Ha), the “AMARE preemergence injury score 0-100” value is 90%. Moreover, the “ABUTH preemergence injury score 0-100” value in experiment [15] (4.4 g/Ha) came out at 80%. In experiment [16] (4.4 g/Ha), the “EPHHL preemergence injury score 0-100” value was found to be 100%. In addition, the “ALOMY preemergence injury score 0-100” value in experiment [17] (4.4 g/Ha) stood at 100%. For the same molecule, the “ECHCG preemergence injury score 0-100” value in experiment [18] (4.4 g/Ha) stood at 100%. The “DIGSA preemergence injury score 0-100” value in experiment [19] (4.4 g/Ha) amounted to 100%. Further, the “SETFA preemergence injury score 0-100” value in experiment [20] (4.4 g/Ha) came to 100%. Also, the “SORBI preemergence injury score 0-100” value in [21] (4.4 g/Ha) is given as 100%. Moreover, the “AVEFA preemergence injury score 0-100” value in the experiment with wild oats (Avena fatua) [22] (4.4 g/Ha) came to 100%.

In the case of `COc1sccc1S(=O)(=O)Nc1nc2c(OC)cnc(OC)n2n1` [Compound 8], in experiment [1], the “STEME postemergence injury score 0-100” value was found to be 95%. Moreover, the “XANST postemergence injury score 0-100” value in experiment [2] is 60%. Moreover, in experiment [3], the “CHEAL postemergence injury score 0-100” value is on record as 70%. For the same molecule, in experiment [4], the “IPOHE postemergence injury score 0-100” value turned out to be 60%. In [6], the “ABUTH postemergence injury score 0-100” value was 75%. The “VIOTR postemergence injury score 0-100” value in the experiment with viola (Viola tricolor) is 75%. For the same molecule, the “ALOMY postemergence injury score 0-100” value in experiment [7] is recorded as 50%. In addition, the “SETFA postemergence injury score 0-100” value in [8] amounted to 60%. In experiment [9], the “SORBI postemergence injury score 0-100” value was 95%. Further, in the experiment on wild oats (Avena fatua) [10], the “AVEFA postemergence injury score 0-100” value is on record as 85%. Moreover, the “XANST preemergence injury score 0-100” value in [11] (8.8 g/Ha) was determined as 80%. Moreover, in experiment [12] (8.8 g/Ha), the “CHEAL preemergence injury score 0-100” value was determined as 70%. Besides, the “IPOHE preemergence injury score 0-100” value in experiment [13] (8.8 g/Ha) amounted to 75%. In addition, the “AMARE preemergence injury score 0-100” value in experiment [14] (8.8 g/Ha) is listed as 80%. Further, the “ABUTH preemergence injury score 0-100” value in experiment [15] (8.8 g/Ha) was found to be 70%. Besides, the “EPHHL preemergence injury score 0-100” value in experiment [16] (8.8 g/Ha) came to 85%. Moreover, the “ALOMY preemergence injury score 0-100” value in experiment [17] (8.8 g/Ha) stood at 85%. The “ECHCG preemergence injury score 0-100” value in experiment [18] (8.8 g/Ha) turned out to be 25%. Moreover, the “DIGSA preemergence injury score 0-100” value in experiment [19] (8.8 g/Ha) came out at 50%. Besides, the “SETFA preemergence injury score 0-100” value in [20] (8.8 g/Ha) is given as 60%. Further, the “SORBI preemergence injury score 0-100” value in experiment [21] (8.8 g/Ha) is 70%. Besides, the “AVEFA preemergence injury score 0-100” value in the experiment with wild oats (Avena fatua) [22] (8.8 g/Ha) is listed as 80%.
